Key:
Test in all cases: relative viability (nuclei count vs DMSO), 5 days (fraction); higher = more cells survive
SGI-1776 + Bortezomib = compound: CN1CCC(CNc2ccc3ncc(-c4cccc(OC(F)(F)F)c4)n3n2)CC1 [SGI-1776] + CC(C)C[C@H](NC(=O)[C@H](Cc1ccccc1)NC(=O)c1cnccn1)B(O)O [Bortezomib] (partner 0.002 µM)
How it was run: (§1)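 Lung cancer cell lines, seeded in 1536-well plates, were treated the following day by pin tool with a single drug or with five library-drug doses (not always all listed) in √10 steps on top of a fixed anchor-drug dose. Cells were fixed and nuclei stained in one step after 5 days, and nuclei were counted. Relative viability is the nuclei count for treated wells divided by that for vehicle wells, reported as medians of duplicate plates.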

SGI-1776 + Foretinib = compound: CN1CCC(CNc2ccc3ncc(-c4cccc(OC(F)(F)F)c4)n3n2)CC1 [SGI-1776] + COc1cc2c(Oc3ccc(NC(=O)C4(C(=O)Nc5ccc(F)cc5)CC4)cc3F)ccnc2cc1OCCCN1CCOCC1 [Foretinib] (partner 0.25 µM)
How it was run: as §1

[1] = compound: C1COCCN1C2=NC(=NC3=C2OC4=C3C=CC=N4)C5=CC(=CC=C5)NC(=O)C6=CN=C(C=C6)N + Nc1ncn([C@H]2C[C@H](O)[C@@H](CO)O2)c(=O)n1 [Decitabine] (partner 2 µM)
How it was run: as §1

HCC-78
relative viability (SGI-1776 + Bortezomib; first compound 0.08 µM): 0.48 | relative viability (SGI-1776 + Bortezomib; first compound 0.8 µM): 0.516 | relative viability (SGI-1776 + Bortezomib; first compound 2.53 µM): 0.516 | relative viability (SGI-1776 + Bortezomib; first compound 8 µM): 0.45 | relative viability (SGI-1776 + Foretinib; first compound 0.08 µM): 0.553 | relative viability (SGI-1776 + Foretinib; first compound 0.8 µM): 0.566 | relative viability (SGI-1776 + Foretinib; first compound 2.53 µM): 0.595 | relative viability (SGI-1776 + Foretinib; first compound 8 µM): 0.606 | relative viability ([1]; first compound 0.02 µM): 0.69 | relative viability ([1]; first compound 0.06325 µM): 0.78 | relative viability ([1]; first compound 0.2 µM): 0.671 | relative viability ([1]; first compound 0.6325 µM): 0.961 | relative viability ([1]; first compound 2 µM): 0.777

NCI-H3122
relative viability (SGI-1776 + Bortezomib; first compound 0.08 µM): 1.06 | relative viability (SGI-1776 + Bortezomib; first compound 0.8 µM): 1.01 | relative viability (SGI-1776 + Bortezomib; first compound 2.53 µM): 1.08 | relative viability (SGI-1776 + Bortezomib; first compound 8 µM): 1.01 | relative viability (SGI-1776 + Foretinib; first compound 0.08 µM): 0.968 | relative viability (SGI-1776 + Foretinib; first compound 0.8 µM): 0.964 | relative viability (SGI-1776 + Foretinib; first compound 2.53 µM): 1.04 | relative viability (SGI-1776 + Foretinib; first compound 8 µM): 1.04 | relative viability ([1]; first compound 0.02 µM): 0.391 | relative viability ([1]; first compound 0.06325 µM): 0.354 | relative viability ([1]; first compound 0.2 µM): 0.366 | relative viability ([1]; first compound 0.6325 µM): 0.487 | relative viability ([1]; first compound 2 µM): 0.322

HOP-62
relative viability (SGI-1776 + Bortezomib; first compound 0.08 µM): 0.862 | relative viability (SGI-1776 + Bortezomib; first compound 0.8 µM): 0.914 | relative viability (SGI-1776 + Bortezomib; first compound 2.53 µM): 0.74 | relative viability (SGI-1776 + Bortezomib; first compound 8 µM): 0.632 | relative viability (SGI-1776 + Foretinib; first compound 0.08 µM): 1.2 | relative viability (SGI-1776 + Foretinib; first compound 0.8 µM): 1.13 | relative viability (SGI-1776 + Foretinib; first compound 2.53 µM): 1.03 | relative viability (SGI-1776 + Foretinib; first compound 8 µM): 1.1 | relative viability ([1]; first compound 0.02 µM): 0.193 | relative viability ([1]; first compound 0.06325 µM): 0.227 | relative viability ([1]; first compound 0.2 µM): 0.243 | relative viability ([1]; first compound 0.6325 µM): 0.313 | relative viability ([1]; first compound 2 µM): 0.412

NCI-H661
relative viability (SGI-1776 + Bortezomib; first compound 0.08 µM): 0.963 | relative viability (SGI-1776 + Bortezomib; first compound 0.8 µM): 0.858 | relative viability (SGI-1776 + Bortezomib; first compound 2.53 µM): 0.833 | relative viability (SGI-1776 + Bortezomib; first compound 8 µM): 0.649 | relative viability (SGI-1776 + Foretinib; first compound 0.08 µM): 1.03 | relative viability (SGI-1776 + Foretinib; first compound 0.8 µM): 1.04 | relative viability (SGI-1776 + Foretinib; first compound 2.53 µM): 1.07 | relative viability (SGI-1776 + Foretinib; first compound 8 µM): 1.03 | relative viability ([1]; first compound 0.02 µM): 0.593 | relative viability ([1]; first compound 0.06325 µM): 0.578 | relative viability ([1]; first compound 0.2 µM): 0.603 | relative viability ([1]; first compound 0.6325 µM): 0.63 | relative viability ([1]; first compound 2 µM): 0.444

BEN
relative viability (SGI-1776 + Bortezomib; first compound 0.08 µM): 0.909 | relative viability (SGI-1776 + Bortezomib; first compound 0.8 µM): 0.918 | relative viability (SGI-1776 + Bortezomib; first compound 2.53 µM): 0.754 | relative viability (SGI-1776 + Bortezomib; first compound 8 µM): 0.624 | relative viability (SGI-1776 + Foretinib; first compound 0.08 µM): 0.72 | relative viability (SGI-1776 + Foretinib; first compound 0.8 µM): 0.623 | relative viability (SGI-1776 + Foretinib; first compound 2.53 µM): 0.472 | relative viability (SGI-1776 + Foretinib; first compound 8 µM): 0.552 | relative viability ([1]; first compound 0.02 µM): 0.75 | relative viability ([1]; first compound 0.06325 µM): 0.762 | relative viability ([1]; first compound 0.2 µM): 0.697 | relative viability ([1]; first compound 0.6325 µM): 0.752 | relative viability ([1]; first compound 2 µM): 0.637

ChaGo-K-1
relative viability (SGI-1776 + Bortezomib; first compound 0.08 µM): 0.982 | relative viability (SGI-1776 + Bortezomib; first compound 0.8 µM): 1.22 | relative viability (SGI-1776 + Bortezomib; first compound 2.53 µM): 0.644 | relative viability (SGI-1776 + Bortezomib; first compound 8 µM): 0.785 | relative viability (SGI-1776 + Foretinib; first compound 0.08 µM): 0.834 | relative viability (SGI-1776 + Foretinib; first compound 0.8 µM): 0.96 | relative viability (SGI-1776 + Foretinib; first compound 2.53 µM): 0.993 | relative viability (SGI-1776 + Foretinib; first compound 8 µM): 0.741 | relative viability ([1]; first compound 0.02 µM): 0.563 | relative viability ([1]; first compound 0.06325 µM): 0.544 | relative viability ([1]; first compound 0.2 µM): 0.517 | relative viability ([1]; first compound 0.6325 µM): 0.601 | relative viability ([1]; first compound 2 µM): 0.458

NCI-H2085
relative viability (SGI-1776 + Bortezomib; first compound 0.08 µM): 1.14 | relative viability (SGI-1776 + Bortezomib; first compound 0.8 µM): 1.16 | relative viability (SGI-1776 + Bortezomib; first compound 2.53 µM): 1 | relative viability (SGI-1776 + Bortezomib; first compound 8 µM): 0.922 | relative viability (SGI-1776 + Foretinib; first compound 0.08 µM): 0.864 | relative viability (SGI-1776 + Foretinib; first compound 0.8 µM): 0.864 | relative viability (SGI-1776 + Foretinib; first compound 2.53 µM): 0.852 | relative viability (SGI-1776 + Foretinib; first compound 8 µM): 0.715 | relative viability ([1]; first compound 0.02 µM): 0.486 | relative viability ([1]; first compound 0.06325 µM): 0.626 | relative viability ([1]; first compound 0.2 µM): 0.57 | relative viability ([1]; first compound 0.6325 µM): 0.649 | relative viability ([1]; first compound 2 µM): 0.559

LCLC-103H
relative viability (SGI-1776 + Bortezomib; first compound 0.08 µM): 1.06 | relative viability (SGI-1776 + Bortezomib; first compound 0.8 µM): 1.05 | relative viability (SGI-1776 + Bortezomib; first compound 2.53 µM): 1.01 | relative viability (SGI-1776 + Bortezomib; first compound 8 µM): 0.859 | relative viability (SGI-1776 + Foretinib; first compound 0.08 µM): 0.88 | relative viability (SGI-1776 + Foretinib; first compound 0.8 µM): 0.705 | relative viability (SGI-1776 + Foretinib; first compound 2.53 µM): 0.748 | relative viability (SGI-1776 + Foretinib; first compound 8 µM): 0.637 | relative viability ([1]; first compound 0.02 µM): 0.724 | relative viability ([1]; first compound 0.06325 µM): 0.723 | relative viability ([1]; first compound 0.2 µM): 0.731 | relative viability ([1]; first compound 0.6325 µM): 0.733 | relative viability ([1]; first compound 2 µM): 0.527

201T
relative viability (SGI-1776 + Bortezomib; first compound 0.08 µM): 1.09 | relative viability (SGI-1776 + Bortezomib; first compound 0.8 µM): 1.08 | relative viability (SGI-1776 + Bortezomib; first compound 2.53 µM): 1.11 | relative viability (SGI-1776 + Bortezomib; first compound 8 µM): 0.986 | relative viability (SGI-1776 + Foretinib; first compound 0.08 µM): 1.13 | relative viability (SGI-1776 + Foretinib; first compound 0.8 µM): 1.09 | relative viability (SGI-1776 + Foretinib; first compound 2.53 µM): 1.03 | relative viability (SGI-1776 + Foretinib; first compound 8 µM): 1.02 | relative viability ([1]; first compound 0.02 µM): 0.864 | relative viability ([1]; first compound 0.06325 µM): 0.856 | relative viability ([1]; first compound 0.2 µM): 0.872 | relative viability ([1]; first compound 0.6325 µM): 0.862 | relative viability ([1]; first compound 2 µM): 0.785

NCI-H2023
relative viability (SGI-1776 + Bortezomib; first compound 0.08 µM): 1.13 | relative viability (SGI-1776 + Bortezomib; first compound 0.8 µM): 1.07 | relative viability (SGI-1776 + Bortezomib; first compound 2.53 µM): 0.988 | relative viability (SGI-1776 + Bortezomib; first compound 8 µM): 0.727 | relative viability (SGI-1776 + Foretinib; first compound 0.08 µM): 0.96 | relative viability (SGI-1776 + Foretinib; first compound 0.8 µM): 0.857 | relative viability (SGI-1776 + Foretinib; first compound 2.53 µM): 0.675 | relative viability (SGI-1776 + Foretinib; first compound 8 µM): 0.328 | relative viability ([1]; first compound 0.02 µM): 0.248 | relative viability ([1]; first compound 0.06325 µM): 0.246 | relative viability ([1]; first compound 0.2 µM): 0.23 | relative viability ([1]; first compound 0.6325 µM): 0.325 | relative viability ([1]; first compound 2 µM): 0.191

NCI-H23
relative viability (SGI-1776 + Bortezomib; first compound 0.08 µM): 0.997 | relative viability (SGI-1776 + Bortezomib; first compound 0.8 µM): 1.09 | relative viability (SGI-1776 + Bortezomib; first compound 2.53 µM): 1.07 | relative viability (SGI-1776 + Bortezomib; first compound 8 µM): 0.991 | relative viability (SGI-1776 + Foretinib; first compound 0.08 µM): 0.969 | relative viability (SGI-1776 + Foretinib; first compound 0.8 µM): 0.932 | relative viability (SGI-1776 + Foretinib; first compound 2.53 µM): 0.781 | relative viability (SGI-1776 + Foretinib; first compound 8 µM): 0.333 | relative viability ([1]; first compound 0.02 µM): 0.285 | relative viability ([1]; first compound 0.06325 µM): 0.371 | relative viability ([1]; first compound 0.2 µM): 0.288 | relative viability ([1]; first compound 0.6325 µM): 0.378 | relative viability ([1]; first compound 2 µM): 0.277

From the supplement of paper PMC10307832
